One assay concerns the target T1, human IKK-β (Homo sapiens, UniProt O14920).
T1 construct: A cDNA fragment encoding human IKK-β open reading frame was generated by PCR; His; made in house; host or cells: Sf21 insect cells (baculovirus); the GST-IκBα substrate was made in E. coli
T1 sequence (O14920 1-756): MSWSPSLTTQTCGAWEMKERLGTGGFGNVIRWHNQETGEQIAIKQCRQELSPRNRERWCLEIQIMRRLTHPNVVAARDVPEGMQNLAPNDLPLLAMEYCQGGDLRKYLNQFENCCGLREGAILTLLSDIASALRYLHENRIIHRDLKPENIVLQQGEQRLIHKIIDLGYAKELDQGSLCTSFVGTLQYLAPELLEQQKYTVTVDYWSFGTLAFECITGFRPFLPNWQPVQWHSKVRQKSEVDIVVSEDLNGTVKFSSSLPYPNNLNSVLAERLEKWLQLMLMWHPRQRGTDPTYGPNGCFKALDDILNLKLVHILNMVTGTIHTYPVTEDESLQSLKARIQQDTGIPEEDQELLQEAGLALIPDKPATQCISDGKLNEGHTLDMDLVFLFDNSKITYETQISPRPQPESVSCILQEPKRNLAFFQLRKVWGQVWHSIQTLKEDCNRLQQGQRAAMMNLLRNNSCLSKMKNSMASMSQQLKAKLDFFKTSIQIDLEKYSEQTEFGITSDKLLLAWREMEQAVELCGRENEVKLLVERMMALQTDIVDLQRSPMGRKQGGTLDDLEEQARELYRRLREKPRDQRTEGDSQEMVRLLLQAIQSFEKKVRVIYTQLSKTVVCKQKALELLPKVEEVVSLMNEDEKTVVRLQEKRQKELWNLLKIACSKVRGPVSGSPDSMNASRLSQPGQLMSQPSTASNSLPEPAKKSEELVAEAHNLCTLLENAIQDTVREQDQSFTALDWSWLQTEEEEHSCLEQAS
As to the kind of experiment: IKK-β kinase inhibitory assay. The settings on record: compounds of about 40 to 90% purity, read-out: In vitro activity grade (invitro, IC50). Type of assay: biochemical. The method, boiled down: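 His-tagged human IKK-β from baculovirus-infected Sf21 cells (final 0.6 μg/ml) with biotinylated GST-IκBα (1-54) (final 0.2 μM) in Tris-HCl pH 7.6/MgCl2 buffer with 2.5% DMSO compound. Reaction started with ATP plus [γ-^33P] ATP, 2 hrs at room temperature; EDTA-stopped, substrate captured on streptavidin plates and bound radioactivity counted by scintillation.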

Assay [1] concerns RANTES production in response to TNF-α from A549 cells. Kind of assay: RANTES production in response to TNF-α from A549 cells. The assay is classed as cell-based, human. The settings on record: 100 ng/ml TNF-α, compounds of about 40 to 90% purity, read-out: Cellular activity grade (A549, IC50).

Counter-ions that a name gives are not always drawn. Like-named read-outs stand apart in the source and are kept apart here.

On to `Nc1cccc(-c2cc(-c3ccccc3O)nc(N)c2C(=O)O)c1` [Example 7-1, Sodium 2-amino-4-(3-aminophenyl)-6-(2-hydroxyphenyl)nicotinate], for which the IC50 at human IKK-β is 2000 to 10000 nM; in assay [1] (Homo sapiens, A549, 24 h), above 10000 nM.

On to `N#Cc1c(-c2cccc(NC(=O)CCN3CCC(C(=O)O)CC3)c2)cc(-c2ccccc2O)nc1N` [Example 4-28], for which the IC50 on human IKK-β was 2000 to 10000 nM; in assay [1] (Homo sapiens, A549, 24 h), above 10000 nM.

`N#Cc1c(-c2ccc(N3CCCC3)c(NC(=O)CCN3CCCCC3)c2)cc(-c2ccccc2O)nc1N` [Example 3-1, N-[5-[2-amino-3-cyano-6-(2-hydroxyphenyl)-4-pyridinyl]-2-(1-pyrrolidinyl)phenyl]-3-(1-piperidinyl)propanamide hydrochloride]: the concentration for half-maximal inhibition (IC50) at human IKK-β is 500 to 2000 nM; in assay [1] (Homo sapiens, A549, 24 h) it was 1000 to 10000 nM.

In the case of `N#Cc1c(-c2cccc(NC(=O)CNCCCO)c2)cc(-c2ccccc2O)nc1N` [Example 4-20], the IC50 on human IKK-β is below 500 nM; in assay [1] (Homo sapiens, A549, 24 h), above 10000 nM.

`N#Cc1c(-c2ccc(C(=O)NCCN3CCCCC3)cc2)cc(-c2ccccc2O)nc1N` [Example 6-02]: the 50% inhibitory concentration (IC50) on human IKK-β was 500 to 2000 nM; in assay [1] (Homo sapiens, A549, 24 h), above 10000 nM.

Turning to `N#Cc1c(-c2cccc(O)c2)cc(-c2ccccc2O)nc1N` [Example 1-23], the IC50 at human IKK-β is below 500 nM; in assay [1] (Homo sapiens, A549, 24 h), 1000 to 10000 nM.

For `N#Cc1c(-c2ccc(OCC3CC3)c(NC(=O)CN3CCCCC3)c2)cc(-c2ccccc2O)nc1N` [Example 4-35], the IC50 on human IKK-β was above 10000 nM; in assay [1] (Homo sapiens, A549, 24 h), above 10000 nM.

With `CC(=O)Nc1ccc(-c2cc(-c3ccccc3O)nc(N)c2C#N)cc1O` [Example 2-16], the IC50 at human IKK-β is below 500 nM; in assay [1] (Homo sapiens, A549, 24 h), 1000 to 10000 nM.

Turning to `N#Cc1c(-c2cccc(NC(=O)CNCC3CC3)c2)cc(-c2ccccc2O)nc1N` [Example 4-18], the IC50 was below 500 nM at human IKK-β and 1000 to 10000 nM in assay [1] (Homo sapiens, A549, 24 h).

Turning to `N#Cc1c(-c2cccc(NC(=O)CN3CCN(CCO)CC3)c2)cc(-c2ccccc2O)nc1N` [Example 4-08], the IC50 on human IKK-β is 500 to 2000 nM; in assay [1] (Homo sapiens, A549, 24 h), 1000 to 10000 nM.

As for `N#Cc1c(-c2cccc(NC(=O)CN3CC=CC3)c2)cc(-c2ccccc2O)nc1N` [Example 4-14], the half-maximal inhibitory concentration (IC50) fell in the range of 500 to 2000 nM at human IKK-β and 1000 to 10000 nM in assay [1] (Homo sapiens, A549, 24 h).

As to `N#Cc1c(-c2cccc(C(=O)NCCN3CCCCC3)c2)cc(-c2ccccc2O)nc1N` [Example 6-1, 3-[2-amino-3-cyano-6-(2-hydroxyphenyl)-4-pyridinyl]-N-[2-(1-piperidinyl)ethyl]benzamide trifluoroacetate], the IC50 on human IKK-β lay in the range of 2000 to 10000 nM; in assay [1] (Homo sapiens, A549, 24 h), 1000 to 10000 nM.

Regarding `CCOC(=O)C1CCCN(CCC(=O)Nc2cccc(-c3cc(-c4ccccc4O)nc(N)c3C#N)c2)C1` (stereo not drawn) [Example 4-27], the IC50 lay in the range of 2000 to 10000 nM at human IKK-β and 1000 to 10000 nM in assay [1] (Homo sapiens, A549, 24 h).

Turning to `CC(=O)Nc1ccc(-c2cc(-c3ccccc3O)nc(N)c2CO)cc1O` [Example 8-05], the IC50 at human IKK-β is below 500 nM; in assay [1] (24 hrs), 1000 to 10000 nM.

With `COc1ccc(O)c(-c2cc(-c3cccc(NC(=O)C(O)CCC(=O)O)c3)c(C#N)c(N)n2)c1` (stereo not drawn) [Example 1-18], the IC50 was 2000 to 10000 nM at human IKK-β and above 10000 nM in assay [1] (Homo sapiens, A549, 24 h).

As for `COc1cccc(O)c1-c1cc(-c2cccc(NC(=O)C(O)CCC(=O)O)c2)c(C#N)c(N)n1` (stereo not drawn) [Example 1-13], the IC50 at human IKK-β was 500 to 2000 nM; in assay [1] (Homo sapiens, A549, 24 h), above 10000 nM.

For the compound `N#Cc1c(-c2cccc(NC(=O)CCNCC3CC3)c2)cc(-c2ccccc2O)nc1N` [Example 4-21], the IC50 lay within 500 to 2000 nM at human IKK-β and 1000 to 10000 nM in assay [1] (Homo sapiens, A549, 24 h).

With `N#Cc1c(-c2cccc(NC(=O)C(O)CCC(=O)O)c2)cc(-c2ccccc2O)nc1N` (stereo not drawn) [Example 1-2, Sodium 5-({3-[2-amino-3-cyano-6-(2-hydroxyphenyl)-4-pyridinyl]phenyl}amino)-4-hydroxy-5-oxopentanoate], the IC50 on human IKK-β was 500 to 2000 nM; in assay [1] (Homo sapiens, A549, 24 h) it was above 10000 nM.

With `N#Cc1c(-c2cccc(NC(=O)C(O)CCC(=O)O)c2)cc(-c2ncccc2O)nc1N` (stereo not drawn) [Example 1-22], the IC50 on human IKK-β is 500 to 2000 nM; in assay [1] (Homo sapiens, A549, 24 h) it was above 10000 nM.

For `N#Cc1c(-c2cccc(N)c2)cc(-c2ncccc2O)nc1N` [Example 1-21], the IC50 is 2000 to 10000 nM at human IKK-β and 1000 to 10000 nM in assay [1] (Homo sapiens, A549, 24 h).

As for `N#Cc1c(-c2cccc(NC(=O)C3CCC(=O)N3)c2)cc(-c2ccccc2O)nc1N` (stereo not drawn) [Example 1-05], the IC50 on human IKK-β is 2000 to 10000 nM; in assay [1] (Homo sapiens, A549, 24 h), above 10000 nM.

In the case of `N#Cc1c(-c2cccc(NC(=O)C[C@H](N)C(=O)O)c2)cc(-c2ccccc2O)nc1N` [Example 2-02], the results for the concentration for half-maximal inhibition (IC50) (on human IKK-β; in assay [1] (24 hrs)) were 500 to 2000 nM and above 10000 nM, respectively.

As to `N#Cc1c(-c2cccc(NC(=O)CN3CCN(C(=O)c4ccco4)CC3)c2)cc(-c2ccccc2O)nc1N` [Example 4-03], the IC50 fell in the range of 2000 to 10000 nM at human IKK-β and 1000 to 10000 nM in assay [1] (Homo sapiens, A549, 24 h).

With `CCN1CCN(CCC(=O)Nc2cccc(-c3cc(-c4ccccc4O)nc(N)c3C#N)c2)CC1` [Example 4-12], the IC50 lay in the range of 500 to 2000 nM at human IKK-β and 1000 to 10000 nM in assay [1] (Homo sapiens, A549, 24 h).

These data come from patent US7410986B2, “4-6-diphenyl pyridine derivatives as antiinflammatory agents” (Bayer Aktiengesellschaft, priority 2000, dated 2008).
